Experimental data from patent US7425551B2, “Malonamide derivatives” (Hoffmann-La Roche Inc., priority 2006, dated 2008).
pIC50: −log10 of the molar value. Where “and” joins values, the source holds several entries; their conditions need not be identical. Equal values may be shown once.

Assays:
γ-secretase = target: T1, γ-secretase (Homo sapiens, UniProt P49768); test: in vitro assay of γ-secretase activity (HEK293 membrane fraction, recombinant APP substrate, Abeta ELISA); assay type: biochemical; settings: γ-secretase inhibition; HEK293 membrane fraction solubilized in 0.25% CHAPSO, recombinant human APP C-terminal 100 amino acids substrate, Abeta detected by ELISA
T1 construct: uses a HEK293 membrane fraction as a source of γ-secretase; endogenous in cells; host or cells: HEK293 (microsomal membrane fraction, solubilised in 0.25% CHAPSO)
Excerpt: Description of 1γ-Secretase Assay The activity of test compounds can be evaluated in assays which measure the proteolytic cleavage of suitable substrates by γ-secretase activity. These can be cellular assays where e.g., a substrate of the γ-secretase is fused in its cytoplasmic domain to a transcription factor. Cells are transfected with this fusion gene and a reporter gene, e.g., firefly luciferase, which expression is enhanced by the transcription factor. Cleavage of the fused substrate by γ-secretase will lead to expression of the reporter gene which can be monitored in appropriate assays. The γ-secretase activity can also be determined in cell-free in vitro assays where e.g., a cell lysate containing the γ-secretase complex is incubated with a suitable APP-derived substrate which is cleaved to the Abeta peptides. The amount of produced peptides can be determined with specific ELISA assays. Cell lines of neuronal origin secrete Abeta peptides which can be measured with the specific ELISA assay. Treatment with compounds which inhibit γ-secretase leads to a reduction of secreted Abeta thus providing a measure of inhibition. The in vitro assay of γ-secretase activity uses a HEK293 membrane fraction as a source of γ-secretase and a recombinant APP substrate. Latter consist of the C-terminal 100 amino acids of human APP fused to a 6× Histidin tail for purification which is expressed in E. coli in a regulatable expression vector, e.g. pEt15. This recombinant protein corresponds to the truncated APP fragment which results after […] of the extracellular domain and which constitutes the γ-secretase substrate. The assay principle is described in Li Y M et al, PNAS 97(11), 6138-6143 (2000). Hek293 cells are mechanically disrupted and the microsomal fraction is isolated by differential centrifugation. The membranes are solubilized in detergent (0.25% CHAPSO) and incubated with the APP substrate. The Abeta peptides which are produced by γ-secretase cleavage of the substrate are detected by specific ELISA assays as described (Brockhaus M et al, Neuroreport 9(7), 1481-1486 (1998).

Row | SMILES | pIC50 (γ-secretase) | melting point
1 | C[C@H](OC(=O)NCCC(F)(F)C(F)(F)F)C(=O)N[C@@H]1C(=O)N(CCO)c2ccccc2-c2ccccc21 [Example 38, (3,3,4,4,4-Pentafluoro-butyl)-carbamic acid (S)-1-[(S)-5-(2-hydroxy-ethyl)-6-oxo-6,7-dihydro-5H-dibenzo[b,d]azepin-7-ylcarbamoyl]-ethyl ester] | 7.92 | 181 to 184 °C
2 | C[C@H](OC(=O)NCC(F)(F)F)C(=O)N[C@@H]1C(=O)N(CCO)c2ccccc2-c2ccccc21 [Example 48, (2,2,2-Trifluoro-ethyl)-carbamic acid (S)-1-[(S)-5-(2-hydroxy-ethyl)-6-oxo-6,7-dihydro-5H-dibenzo[b,d]azepin-7-ylcarbamoyl]-ethyl ester] | 7.85 | 
3 | C[C@](F)(C(=O)NCCC(F)(F)C(F)(F)F)C(=O)N[C@@H]1C(=O)N(CCO)c2ccccc2-c2ccccc21 [Example 50, (S)-2-Fluoro-N—[(S)-5-(2-hydroxy-ethyl)-6-oxo-6,7-dihydro-5H-dibenzo[b,d]azepin-7-yl]-2-methyl-N′-(3,3,4,4,4-pentafluoro-butyl)-malonamide] | 7.80 | 
4 | C[C@@](F)(C(=O)NCCC(F)(F)F)C(=O)N[C@@H]1C(=O)N(CCOCc2ccccc2)c2ccccc2-c2ccccc21 [Example 51, (R)—N—[(S)-5-(2-Benzyloxy-ethyl)-6-oxo-6,7-dihydro-5H-dibenzo[b,d]azepin-7-yl]-2-fluoro-2-methyl-N′-(3,3,3-trifluoro-propyl)-malonamide] | 8.15 | 
5 | C[C@@](F)(C(=O)NCC(F)(F)F)C(=O)N[C@@H]1C(=O)N(CCOCc2ccccc2)c2ccccc2-c2ccccc21 [Example 52, (R)—N—[(S)-5-(2-Benzyloxy-ethyl)-6-oxo-6,7-dihydro-5H-dibenzo[b,d]azepin-7-yl]-2-fluoro-2-methyl-N′-(2,2,2-trifluoro-ethyl)-malonamide] | 8.00 | 
6 | CC(O)(C(=O)NCCC(F)(F)C(F)(F)F)C(=O)N[C@@H]1C(=O)N(CCOCc2ccccc2)c2ccccc2-c2ccccc21 (stereo partly drawn) [Example 55, N—[(S)-5-(2-Benzyloxy-ethyl)-6-oxo-6,7-dihydro-5H-dibenzo[b,d]azepin-7-yl]-2-hydroxy-2-methyl-N′-(3,3,4,4,4-pentafluoro-butyl)-malonamide] | 7.92 | 
7 | C[C@@](O)(C(=O)NCC(F)(F)F)C(=O)N[C@@H]1C(=O)N(CCOCc2ccccc2)c2ccccc2-c2ccccc21 [Example 57, (R)—N—[(S)-5-(2-Benzyloxy-ethyl)-6-oxo-6,7-dihydro-5H-dibenzo[b,d]azepin-7-yl]-2-hydroxy-2-methyl-N′-(2,2,2-trifluoro-ethyl)-malonamide] | 7.05 | 
8 | C[C@](O)(C(=O)NCC(F)(F)F)C(=O)N[C@@H]1C(=O)N(CCOCc2ccccc2)c2ccccc2-c2ccccc21 [Example 58, (S)—N—[(S)-5-(2-Benzyloxy-ethyl)-6-oxo-6,7-dihydro-5H-dibenzo[b,d]azepin-7-yl]-2-hydroxy-2-methyl-N′-(2,2,2-trifluoro-ethyl)-malonamide] | 8.10 | 
9 | CC(O)(C(=O)NCCC(F)(F)F)C(=O)N[C@@H]1C(=O)N(CCOCc2ccccc2)c2ccccc2-c2ccccc21 (stereo partly drawn) [Example 63, N—[(S)-5-(2-Benzyloxy-ethyl)-6-oxo-6,7-dihydro-5H-dibenzo[b,d]azepin-7-yl]-2-hydroxy-2-methyl-N′-(3,3,3-trifluoro-propyl)-malonamide] | 8.70 | 
10 | COCCN1C(=O)[C@@H](NC(=O)C(C)(C)C(=O)NCC(F)(F)C(F)(F)F)c2ccccc2-c2ccccc21 [Example 67, N—[(S)-5-(2-Methoxy-ethyl)-6-oxo-6,7-dihydro-5H-dibenzo[b,d]azepin-7-yl]-2,2-dimethyl-N′-(2,2,3,3,3-pentafluoro-propyl)-malonamide] | 8.30 | 
11 | COCCN1C(=O)[C@@H](NC(=O)C(OC)C(=O)NCC(F)(F)C(F)(F)F)c2ccccc2-c2ccccc21 (stereo partly drawn) [Example 68, 2-Methoxy-N—[(S)-5-(2-methoxy-ethyl)-6-oxo-6,7-dihydro-5H-dibenzo[b,d]azepin-7-yl]-N′-(2,2,3,3,3-pentafluoro-propyl)-malonamide] | 8.05 | 
12 | CC(C)(C(=O)NCC(F)(F)C(F)(F)F)C(=O)N[C@@H]1C(=O)N(CCOc2ccc(F)cc2)c2ccccc2-c2ccccc21 [Example 69, N-{(S)-5-[2-(4-Fluoro-phenoxy)-ethyl]-6-oxo-6,7-dihydro-5H-dibenzo[b,d]azepin-7-yl}-2,2-dimethyl-N′-(2,2,3,3,3-pentafluoro-propyl)-malonamide] | 8.22 | 
13 | CC(C)OCCN1C(=O)[C@@H](NC(=O)C(C)(C)C(=O)NCC(F)(F)C(F)(F)F)c2ccccc2-c2ccccc21 [Example 70, N—[(S)-5-(2-Isopropoxy-ethyl)-6-oxo-6,7-dihydro-5H-dibenzo[b,d]azepin-7-yl]-2,2-dimethyl-N′-(2,2,3,3,3-pentafluoro-propyl)-malonamide] | 8.15 | 
14 | CCOCCN1C(=O)[C@@H](NC(=O)C(C)(C)C(=O)NCC(F)(F)C(F)(F)F)c2ccccc2-c2ccccc21 [Example 71, N—[(S)-5-(2-Ethoxy-ethyl)-6-oxo-6,7-dihydro-5H-dibenzo[b,d]azepin-7-yl]-2,2-dimethyl-N′-(2,2,3,3,3-pentafluoro-propyl)-malonamide] | 8.22 | 
15 | CC(C)(C(=O)NCC(F)(F)C(F)(F)F)C(=O)N[C@@H]1C(=O)N(CC(O)C(F)(F)F)c2ccccc2-c2ccccc21 (stereo partly drawn) [Example 72, 2,2-Dimethyl-N—[(S)-6-oxo-5-(3,3,3-trifluoro-2-hydroxy-propyl)-6,7-dihydro-5H-dibenzo[b,d]azepin-7-yl]-N′-(2,2,3,3,3-pentafluoro-propyl)-malonamide] | 9.00 | 

More lines, main results first:

Row | pIC50 (γ-secretase) | SMILES | melting point
16 | 6.80 | C[C@](F)(C(=O)NCC(F)(F)F)C(=O)N[C@@H]1C(=O)N(CCO)c2ccccc2-c2ccccc21 [Example 49, (S)-2-Fluoro-N—[(S)-5-(2-hydroxy-ethyl)-6-oxo-6,7-dihydro-5H-dibenzo[b,d]azepin-7-yl]-2-methyl-N′-(2,2,2-trifluoro-ethyl)-malonamide] | 
17 | 8.05 | C[C@@](F)(C(=O)NCC(F)(F)F)C(=O)N[C@@H]1C(=O)N(CCO)c2ccccc2-c2ccccc21 [Example 53, (R)-2-Fluoro-N—[(S)-5-(2-hydroxy-ethyl)-6-oxo-6,7-dihydro-5H-dibenzo[b,d]azepin-7-yl]-2-methyl-N′-(2,2,2-trifluoro-ethyl)-malonamide] | 
18 | 8.10 | C[C@@](F)(C(=O)NCCC(F)(F)F)C(=O)N[C@@H]1C(=O)N(CCO)c2ccccc2-c2ccccc21 [Example 54, (R)-2-Fluoro-N—[(S)-5-(2-hydroxy-ethyl)-6-oxo-6,7-dihydro-5H-dibenzo[b,d]azepin-7-yl]-2-methyl-N-(3,3,3-trifluoro-propyl)-malonamide] | 
19 | 8.70 | CC(O)(C(=O)NCCC(F)(F)C(F)(F)F)C(=O)N[C@@H]1C(=O)N(CCO)c2ccccc2-c2ccccc21 (stereo partly drawn) [Example 56, 2-Hydroxy-N—[(S)-5-(2-hydroxy-ethyl)-6-oxo-6,7-dihydro-5H-dibenzo[b,d]azepin-7-yl]-2-methyl-N′-(3,3,4,4,4-pentafluoro-butyl)-malonamide] | 
20 | 6.72 | C[C@@](O)(C(=O)NCC(F)(F)F)C(=O)N[C@@H]1C(=O)N(CCO)c2ccccc2-c2ccccc21 [Example 59, (R)-2-Hydroxy-N—[(S)-5-(2-hydroxy-ethyl)-6-oxo-6,7-dihydro-5H-dibenzo[b,d]azepin-7-yl]-2-methyl-N′-(2,2,2-trifluoro-ethyl)-malonamide] | 
21 | 8.40 | C[C@](O)(C(=O)NCC(F)(F)F)C(=O)N[C@@H]1C(=O)N(CCO)c2ccccc2-c2ccccc21 [Example 60, (S)-2-Hydroxy-N—[(S)-5-(2-hydroxy-ethyl)-6-oxo-6,7-dihydro-5H-dibenzo[b,d]azepin-7-yl]-2-methyl-N′-(2,2,2-trifluoro-ethyl)-malonamide] | 
22 | 8.00 | CC(O)(C(=O)NCCC(F)(F)F)C(=O)N[C@@H]1C(=O)N(CCO)c2ccccc2-c2ccccc21 (stereo partly drawn) [Example 64, 2-Hydroxy-N—[(S)-5-(2-hydroxy-ethyl)-6-oxo-6,7-dihydro-5H-dibenzo[b,d]azepin-7-yl]-2-methyl-N′-(3,3,3-trifluoro-propyl)-malonamide] | 61 to 69 °C and 59 to 62 °C and 64 to 71 °C
